Results as given in patent publication US9814758B2, “Inhibitors of apoptosis and uses thereof” (CENTRE NATIONAL DE LA RECHERCHE SCIENTIFIQUE-CNRS, priority 2010, dated 2017).
Non-standard residues stand in square brackets, D forms with d. Residues, ends and D or L forms follow the SMILES beside them. No end group written: not given here. Ahx = NCCCCCC(=O)O

Tested on: C57Bl6 mice, myocardial ischemia-reperfusion
Assay: Myocardial ischemia-reperfusion IR60' (40 min ischemia, 60 min reperfusion)
Format: in vivo, mouse
Procedure: FIG. 11: In vivo experimental protocol. C57Bl6 mice underwent a surgical protocol of myocardial ischemia-reperfusion (IR). The black box represents the period of ischemia to which the mice were submitted. Infarct size or cell death measurements were performed at the end of surgery for each protocol (indicated by ↑). IR60′: 40 minutes of Ischemia, 60 minutes of Reperfusion. IR24h: 40 minutes Ischemia and 24 hours Reperfusion.
FIG. 12: Cardioprotective effects of Tat-DAXXp (1 mg/kg—IV) in mice subjected to IR60′. Infarct size (in % of area at risk) and internucleosomal DNA fragmentation determined by ELISA were quantified in mice subjected to IR60′ and treated with Tat, Tat-DAXXp or Tat-scrDAXXp (1 mg/kg) as well as with DAXXp (10 mg/kg) (intravenous injection (IV) 5 minutes before reperfusion). Means±SEM were plotted for (A): Area at risk/LV mass (left ventricle), (B): Infarct size (in % of area at risk) and (C): (I/NI ratio) corresponding to the ratio of soluble nucleosome in the ischemic portion versus the non-ischemic portion of LV tissues. Statistical analysis was performed using One-way ANOVA with Neuman-Keuls post test for multiple comparisons (GraphPad Prism software). P<0.05, P<0.01 and P<0.001 versus Tat-DAXXp were noted *, **, and *** respectively. P=ns (not significant) for P>0.05.
FIG. 13: Dose response for Tat-DAXXp and DAXXp in mice subjected to IR60′. Infarct size (in % of area at risk) and internucleosomal DNA fragmentation determined by ELISA were quantified in mice subjected to IR60′ and treated with Tat (1 mg/kg), Tat-DAXXp (0.1, 1 and 10 mg/kg) or DAXXp (0.1, 1 and 10 mg/kg) injected intravenously 5 minutes before reperfusion. Means±SEM were plotted for (A): Area at risk/LV mass (left ventricle), (B): Infarct size (in % of area at risk) and (C): (I/NI ratio) corresponding to the ratio of soluble nucleosome in the ischemic versus the non-ischemic portion of LV tissues.
In a second step, the cardioprotective effects of DAXXp were evaluated in an in vivo model of myocardial ischemia-reperfusion. Acute myocardial ischemia and reperfusion were performed in C57Bl6 mice subjected to a surgical model of reversible coronary occlusion. Male mice (22-28 g) were anesthetized and ventilated via a tracheal intubation using a Harvard rodent respirator. Body temperature was maintained between 36.8° C. and 37.0° C. via a thermo-regulated surgical table. The chest was opened by left lateral thoracotomy and a reversible coronary artery snare occluder was placed around the left coronary artery. Mice were randomly allocated to two different surgical protocols of myocardial ischemia-reperfusion (FIG. 11). At the end of reperfusion, the artery was re-occluded and phtalocyanine blue dye was injected into the left ventricle cavity and allowed to perfuse the non-ischemic portions of the myocardium. To determine the effect of DAXXp on myocardial infarct size, peptides were administered intravenously (caudal vein) 5 minutes before reperfusion during the surgical protocol of ischemia-reperfusion. The control groups were treated with Tat or Pip2b peptide (for CPP alone). The dose of 1 mg/kg was chosen (μmolar range) and dose responses for 0.1 and 10 mg/kg were also tested.
At the end of reperfusion, mice were re-anaesthetized, the coronary ligature definitively tightened, the blue dye injected and the harvested left ventricles were dedicated to infarct size (TTC method, Schwartz et al, J Thromb. Thromb., 2000; 10: 181-187) or DNA fragmentation measurements (Cell death detection ELISA^PLUS kit, Roche Diagnostics) in order to investigate the cardioprotective effects against ischemia-reperfusion injuries.

CC[C@H](C)[C@H](NC(=O)[C@H](Cc1c[nH]cn1)NC(=O)[C@@H](NC(=O)[C@H](CCCNC(=N)N)NC(=O)CCCCCNC(=O)[C@H](CCCNC(=N)N)NC(=O)[C@H](CCCNC(=N)N)NC(=O)CCCCCNC(=O)[C@H](CCCNC(=N)N)NC(=O)[C@H](CCCNC(=N)N)NC(=O)CCCCCNC(=O)[C@@H](N)CCCNC(=N)N)[C@@H](C)CC)C(=O)N[C@@H](CC(C)C)C(=O)N[C@@H](Cc1ccccc1)C(=O)N[C@@H](CCC(N)=O)C(=O)N[C@@H](CC(N)=O)C(=O)N[C@H](CCCNC(=N)N)C(=O)N[C@@H](CCCNC(=N)N)C(=O)N[C@@H](CCSC)C(=O)N[C@@H](CCCCN)C(=O)N[C@@H](Cc1c[nH]c2ccccc12)C(=O)N[C@@H](Cc1c[nH]cn1)C(=O)N[C@@H](CCCCN)C(=O)N[C@@H](CCCCN)C(=O)N[C@@H](CCCCN)C(=O)N[C@@H](CO)C(=O)N[C@@H](CCCNC(=N)N)C(=O)N[C@@H](CCCCN)C(=O)N[C@@H](CCC(=O)O)C(=O)N[C@@H](CCCCN)C(=O)N[C@@H](CCCCN)C(=O)N[C@@H](CCC(N)=O)C(=O)N[C@H](C(=O)NCC(=O)N[C@@H](CO)C(=O)NCC(=O)N1CCC[C@H]1C(=O)N[C@@H](CC(C)C)C(=O)NCC(N)=O)[C@@H](C)O [Pip2b-DAXXp, (RXR)3-IHILFQNrRMKWHK-KKSRKEKKQTGSGPLG-NH2] (H-R[Ahx]RR[Ahx]RR[Ahx]RIHILFQN[dR]RMKWHKKKSRKEKKQTGSGPLG-NH2; N-terminus assumed)
cardioprotection (infarct size, DNA fragmentation) (IR60', data not shown): not observed

KKSRKEKKQTGSGPLG-NH2 [DAXXp, KKSRKEKKQTGSGPLG-NH2]
decrease of infarct size (10 mg/kg injected alone (without CPP)): to the same extent than Tat-DAXXp

GRKKRRQRRRPPQKKSRKEKKQTGSGPLG-NH2 [Tat-DAXXp, GRKKRRQRRRPPQ-KKSRKEKKQTGSGPLG-NH2]
specific DNA fragmentation in left ventricles versus Tat-injected mice (1 mg/kg IV, IR60'): drastic decrease | decrease of infarct size versus Tat peptide alone (1 mg/kg intravenously 5 min before reperfusion, after 1 hour-reperfusion, p<0.01): 53.4% | dose of maximal effect (dose response 0.1, 1 and 10 mg/kg IV, FIG. 13): 1 mg/kg
